Experimental data taken from ChEMBL document CHEMBL1201862, “PubChem BioAssay data set” (2004).
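1) Cells in 96-well plates. 2) Compound, 48 h, 5 concentrations. 3) Linear interpolation between surrounding doses. 4) Unreached endpoint = highest concentration. GI50 is the concentration that inhibits growth by half.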 Activity calls are given as the source filed them. Rule as the data show it: active = GI50 up to about 1.1 µM and inactive = higher.

What was measured:
Assay in all cases: NCI-60 cell line screen, 48 h
SF-295 = tested on: SF-295
K562 = tested on: K562
HCT-116 = tested on: HCT-116
SK-OV-3 = tested on: SK-OV-3
NCI-H23 = tested on: NCI-H23
SK-MEL-2 = tested on: SK-MEL-2
CCRF-CEM = tested on: CCRF-CEM
TK-10 = tested on: TK-10
CAKI-1 = tested on: CAKI-1
HOP-62 = tested on: HOP-62
RXF 393 = tested on: RXF 393
MDA-MB-435 = tested on: MDA-MB-435
NCI-H460 = tested on: NCI-H460
M14 = tested on: M14
NCI/ADR-RES = tested on: NCI/ADR-RES
IGROV-1 = tested on: IGROV-1
RPMI-8226 = tested on: RPMI-8226
NCI-H226 = tested on: NCI-H226
PC-3 = tested on: PC-3
SN12C = tested on: SN12C

Measured: GI50

Clc1cccc(Cl)c1/C=N/C12CC3CC(CC(C3)C1)C2
inactive: SF-295 > 10 µM | K562 > 10 µM | HCT-116 > 10 µM | SK-OV-3 > 10 µM | NCI-H23 > 10 µM | SK-MEL-2 > 10 µM | CCRF-CEM > 10 µM | TK-10 > 10 µM | CAKI-1 > 10 µM | HOP-62 > 10 µM | RXF 393 > 10 µM | MDA-MB-435 > 10 µM | NCI-H460 > 10 µM | M14 > 10 µM | NCI/ADR-RES > 10 µM | IGROV-1 > 10 µM | RPMI-8226 > 10 µM | NCI-H226 > 10 µM | PC-3 > 10 µM | SN12C > 10 µM

COc1cc2c(cc1O)C(c1cc(O)c(O)c(OC)c1)C(O)(C(=O)O)C(CO)C2O (stereo not given)
inactive: SF-295 > 100 µM | K562 47 µM | HCT-116 18.3 µM | SK-OV-3 > 100 µM | NCI-H23 > 100 µM | SK-MEL-2 > 100 µM | CCRF-CEM 2.62 µM | TK-10 > 100 µM | CAKI-1 > 100 µM | HOP-62 > 100 µM | RXF 393 > 100 µM | MDA-MB-435 17.6 µM | NCI-H460 > 100 µM | M14 > 100 µM | NCI/ADR-RES > 100 µM | IGROV-1 > 100 µM | RPMI-8226 > 100 µM | NCI-H226 > 100 µM | PC-3 > 100 µM | SN12C 16.4 µM

CCC(=O)c1cc(C(=O)C(=S)SC)cc(C(=O)C(=S)SC)c1
inactive: SF-295 > 100 µM | K562 41.9 µM | HCT-116 > 100 µM | SK-OV-3 > 100 µM | NCI-H23 > 76.7 µM | SK-MEL-2 > 100 µM | CCRF-CEM 3.05 µM | TK-10 > 100 µM | CAKI-1 > 100 µM | HOP-62 > 100 µM | RXF 393 > 100 µM | MDA-MB-435 > 100 µM | NCI-H460 > 100 µM | M14 > 100 µM | NCI/ADR-RES > 100 µM | IGROV-1 > 100 µM | RPMI-8226 99.3 µM | NCI-H226 > 100 µM | PC-3 > 100 µM | SN12C > 100 µM

c1ccc2c(c1)nnn2C1CCCCO1 (stereo not given)
inactive: SF-295 > 100 µM | K562 > 100 µM | HCT-116 > 100 µM | SK-OV-3 > 100 µM | NCI-H23 > 100 µM | SK-MEL-2 > 100 µM | CCRF-CEM > 100 µM | TK-10 > 100 µM | CAKI-1 > 100 µM | HOP-62 > 100 µM | RXF 393 > 100 µM | MDA-MB-435 > 100 µM | NCI-H460 > 100 µM | M14 > 100 µM | NCI/ADR-RES > 100 µM | IGROV-1 > 100 µM | RPMI-8226 > 100 µM | NCI-H226 > 100 µM | PC-3 > 100 µM | SN12C > 100 µM

O=c1oc2ccccc2n1CCN1CCCCC1
inactive: SF-295 > 100 µM | K562 > 100 µM | HCT-116 > 100 µM | SK-OV-3 > 100 µM | NCI-H23 > 100 µM | SK-MEL-2 > 100 µM | CCRF-CEM > 100 µM | TK-10 > 100 µM | CAKI-1 > 100 µM | HOP-62 > 100 µM | RXF 393 > 100 µM | MDA-MB-435 > 100 µM | NCI-H460 > 100 µM | M14 > 100 µM | NCI/ADR-RES > 100 µM | IGROV-1 > 100 µM | RPMI-8226 > 100 µM | NCI-H226 > 100 µM | PC-3 > 100 µM | SN12C > 100 µM

CC[C@]12C=CCN3CCC4(c5cc(/N=N/c6ccc([N+](=O)[O-])cc6)c(OC)cc5N(C)[C@H]4[C@@](O)(C(=O)OC)[C@@H]1OC(C)=O)[C@@H]32 (stereo not given in full)
inactive: SF-295 10.6 µM | K562 6.32 µM | HCT-116 10.7 µM | SK-OV-3 18 µM | NCI-H23 10.5 µM | SK-MEL-2 13 µM | CCRF-CEM 1.77 µM | TK-10 17.2 µM | CAKI-1 12.9 µM | HOP-62 13.6 µM | RXF 393 12.5 µM | MDA-MB-435 11.7 µM | NCI-H460 19.8 µM | M14 15.5 µM | NCI/ADR-RES 7.18 µM | IGROV-1 11.9 µM | RPMI-8226 3.48 µM | NCI-H226 5.5 µM | PC-3 4.26 µM | SN12C 23.8 µM

O=[N+]([O-])c1ccc2c(c1)C1=NN(c3ccccc3)C(c3ccccc3Br)C1CCC2 (stereo not given)
inactive: SF-295 17.9 µM | K562 4.53 µM | HCT-116 12.4 µM | SK-OV-3 > 50 µM | NCI-H23 18.7 µM | SK-MEL-2 24.7 µM | CCRF-CEM 2.19 µM | TK-10 38.2 µM | CAKI-1 23.4 µM | HOP-62 43.6 µM | RXF 393 14.4 µM | MDA-MB-435 15 µM | NCI-H460 22.6 µM | M14 23.2 µM | NCI/ADR-RES 12.7 µM | IGROV-1 27.5 µM | RPMI-8226 6.85 µM | NCI-H226 25.5 µM | PC-3 31.2 µM | SN12C 24.6 µM

CCCCN(Cc1ccccc1)/C(=N/C#N)N(Cc1ccccc1)Cc1ccccc1
inactive: SF-295 9.95 µM | K562 14 µM | HCT-116 5.16 µM | SK-OV-3 30.2 µM | NCI-H23 11.3 µM | SK-MEL-2 13.1 µM | CCRF-CEM 26.7 µM | TK-10 38.1 µM | CAKI-1 10 µM | HOP-62 26.1 µM | RXF 393 17.3 µM | MDA-MB-435 15.7 µM | NCI-H460 9.84 µM | M14 12.8 µM | NCI/ADR-RES 18.7 µM | IGROV-1 17.6 µM | RPMI-8226 12.6 µM | NCI-H226 23.1 µM | PC-3 6.71 µM | SN12C 18.2 µM

Cc1ccc(OC2CC(n3cnc4c(=O)[nH]c(Br)nc43)OC2Oc2ccc(C)cc2)cc1 (stereo not given)
inactive: SF-295 21.7 µM | K562 17.1 µM | HCT-116 29.2 µM | SK-OV-3 34.5 µM | NCI-H23 26.9 µM | SK-MEL-2 26.8 µM | CCRF-CEM 23.1 µM | TK-10 23.2 µM | CAKI-1 24.9 µM | HOP-62 24.1 µM | RXF 393 22.5 µM | MDA-MB-435 24 µM | NCI-H460 20.6 µM | M14 24.9 µM | NCI/ADR-RES 28.7 µM | IGROV-1 24.4 µM | RPMI-8226 34.4 µM | NCI-H226 34.5 µM | PC-3 22.6 µM | SN12C 26.2 µM

COc1ccccc1NC(=S)N/N=C(/c1ccccc1)c1ccccn1
active: SF-295 0.261 µM | K562 < 0.0128 µM | HCT-116 < 0.0147 µM | SK-OV-3 0.0771 µM | NCI-H23 < 0.013 µM | CCRF-CEM 0.0316 µM | TK-10 0.125 µM | CAKI-1 < 0.0421 µM | HOP-62 0.251 µM | RXF 393 1.07 µM | MDA-MB-435 0.356 µM | NCI-H460 0.158 µM | M14 < 0.0249 µM | NCI/ADR-RES 0.0853 µM | IGROV-1 0.0225 µM | RPMI-8226 0.0299 µM | NCI-H226 0.146 µM | PC-3 < 0.0142 µM | SN12C 0.685 µM
inactive: SK-MEL-2 4.4 µM

Nc1ncnc2c1ncn2C1CCC(COS(N)(=O)=O)C1 (stereo not given)
inactive: SF-295 > 100 µM | K562 > 100 µM | HCT-116 57.5 µM | SK-OV-3 > 100 µM | NCI-H23 > 100 µM | SK-MEL-2 > 100 µM | CCRF-CEM > 100 µM | TK-10 > 100 µM | CAKI-1 > 100 µM | HOP-62 > 100 µM | RXF 393 > 100 µM | MDA-MB-435 > 100 µM | NCI-H460 > 100 µM | M14 > 100 µM | NCI/ADR-RES > 100 µM | IGROV-1 > 100 µM | RPMI-8226 > 100 µM | NCI-H226 > 100 µM | PC-3 > 100 µM | SN12C > 100 µM

N/N=C(/CC(O)(C(F)(F)F)C(F)(F)F)c1ccccc1
inactive: SF-295 > 10 µM | K562 > 10 µM | HCT-116 > 10 µM | SK-OV-3 > 10 µM | NCI-H23 > 10 µM | SK-MEL-2 > 10 µM | CCRF-CEM > 10 µM | TK-10 > 10 µM | CAKI-1 > 10 µM | HOP-62 > 10 µM | RXF 393 > 10 µM | MDA-MB-435 > 10 µM | NCI-H460 > 10 µM | M14 > 10 µM | NCI/ADR-RES > 10 µM | IGROV-1 > 10 µM | RPMI-8226 > 10 µM | NCI-H226 > 10 µM | PC-3 > 10 µM | SN12C > 10 µM

C[N+](C)(N)CCC[N+](C)(C)N
inactive: SF-295 > 100 µM | K562 > 100 µM | HCT-116 > 100 µM | SK-OV-3 > 100 µM | NCI-H23 > 100 µM | SK-MEL-2 > 100 µM | CCRF-CEM > 100 µM | TK-10 > 100 µM | CAKI-1 > 100 µM | HOP-62 > 100 µM | RXF 393 > 100 µM | MDA-MB-435 > 100 µM | NCI-H460 > 100 µM | M14 > 100 µM | NCI/ADR-RES > 100 µM | IGROV-1 > 100 µM | RPMI-8226 > 100 µM | NCI-H226 > 100 µM | PC-3 > 100 µM | SN12C > 100 µM

c1ccc([I+]c2ccccc2)cc1
inactive: SF-295 > 100 µM | K562 > 100 µM | HCT-116 > 100 µM | SK-OV-3 > 100 µM | NCI-H23 > 100 µM | SK-MEL-2 > 100 µM | CCRF-CEM > 100 µM | TK-10 > 100 µM | CAKI-1 > 100 µM | HOP-62 > 100 µM | RXF 393 > 100 µM | MDA-MB-435 > 100 µM | NCI-H460 > 100 µM | M14 > 100 µM | NCI/ADR-RES > 100 µM | IGROV-1 > 100 µM | RPMI-8226 > 100 µM | NCI-H226 > 100 µM | PC-3 > 100 µM | SN12C > 100 µM
